From DBAASP
Converted amounts (≈) assume the structure as drawn. Each block holds one compound with its values, some of them ahead of it.

What was measured:
Test in all cases: ≥ marks a high value that may be exact or a test limit, other limits are often not marked, values filed in µg/mL are converted to µM
[1] = test system: Pseudomonas aeruginosa LMG 6395
[2] = test system: Klebsiella pneumoniae LMG 20218
[3] = test system: Klebsiella aerogenes LMG 02094
[4] = test system: Escherichia coli LMG 15862
[5] = test system: Acinetobacter baumannii LMG 01041
Aeromonas salmonicida = test system: Aeromonas salmonicida
[6] = test system: Salmonella enterica subsp. enterica serovar Typhimurium ATCC 14028s
[7] = test system: Staphylococcus epidermidis C621
[8] = test system: Pseudomonas aeruginosa Z61
Vibrio anguillarum = test system: Vibrio anguillarum
[9] = test system: Salmonella enterica serovar typhimurium MS7953s
[10] = test system: Pseudomonas aeruginosa K799
[11] = test system: Klebsiella pneumoniae WGLW2
[12] = test system: Candida albicans ATCC 10231
[13] = test system: Staphylococcus aureus ATCC 29231
[14] = test system: Pseudomonas aeruginosa PA14
[15] = test system: Escherichia coli NCTC 10418
[16] = test system: Staphylococcus aureus NCTC 12981
Trichoderma harzianum = test system: Trichoderma harzianum
Pachysolen tannophilus = test system: Pachysolen tannophilus
Candida albicans = test system: Candida albicans
Aspergillus niger = test system: Aspergillus niger
Fusarium oxysporum = test system: Fusarium oxysporum
Kluyveromyces marxianus = test system: Kluyveromyces marxianus
Staphylococcus aureus = test system: Staphylococcus aureus
[17] = test system: Staphylococcus aureus NCTC 10788
[18] = test system: Pseudomonas aeruginosa ATCC 27853
[19] = test system: Klebsiella pneumoniae ATCC 43816
Pseudomonas aeruginosa = test system: Pseudomonas aeruginosa
[20] = test system: Pseudomonas aeruginosa ATCC 9027
[21] = test system: Staphylococcus aureus ATCC 6538
[22] = test system: Escherichia coli ATCC BAA-2340
[23] = test system: Klebsiella pneumoniae ATCC BAA-1705
[24] = test system: Escherichia coli ATCC 8739
[25] = test system: Enterococcus faecalis NCTC 12697
[26] = test system: Staphylococcus aureus ATCC 12493
[27] = test system: Candida albicans NCYC 1467
[28] = test system: Klebsiella pneumoniae ATCC BAA-2342
[29] = test system: Mannheimia haemolytica 82-25
Escherichia coli TOP 10 = test system: Escherichia coli TOP 10

Compound: CC[C@H](C)[C@H](NC(=O)[C@H](CCCCN)NC(=O)[C@H](CCCCN)NC(=O)[C@@H](N)CC(C)C)C(=O)NCC(=O)N[C@@H](CCCCN)C(=O)N[C@@H](CCCCN)C(=O)N[C@H](C(=O)N[C@@H](Cc1c[nH]c2ccccc12)C(=O)N[C@@H](CCCN=C(N)N)C(=O)N[C@H](C(=O)NCC(=O)N[C@@H](Cc1c[nH]c2ccccc12)C(=O)N[C@@H](CC(N)=O)C(=O)N[C@H](C(=O)N[C@@H](CCCN=C(N)N)C(=O)N[C@@H](CC(=O)O)C(=O)N[C@@H](C)C(=O)N[C@H](C(=O)N[C@H](C(=O)N[C@@H](CCC(N)=O)C(=O)O)[C@@H](C)CC)[C@@H](C)O)[C@@H](C)O)C(C)C)[C@@H](C)CC [LKKIGKKIWRVGWNTRDATIQ]
- MIC [11]: ≥ 51 µM
- MIC [12]: > 51 µM
- MIC [13]: ≥ 51 µM
- MIC [14]: ≥ 51 µM

Compound: NC(=O)[C@H](CCCN=C(N)N)NC(=O)[C@@H]1CCCN1C(=O)[C@@H]1CCCN1C(=O)[C@H](Cc1c[nH]c2ccccc12)NC(=O)[C@@H]1CCCN1C(=O)[C@@H](N)CCCN=C(N)N [RPWPPR]
- MIC [15]: ≥ 158 µM
- MIC [16]: ≥ 158 µM

Compound: CC[C@H](C)[C@H](NC(=O)[C@H](CC(C)C)NC(=O)[C@@H](NC(=O)[C@@H](N)CC(=O)O)[C@@H](C)O)C(=O)NCC(=O)N[C@@H](CO)C(=O)N[C@H]1CSSC[C@@H]2NC(=O)[C@H](Cc3cnc[nH]3)NC(=O)CNC(=O)CNC(=O)[C@H](CCCCN)NC(=O)[C@H](Cc3ccc(O)cc3)NC(=O)CNC(=O)[C@H](CCCN=C(N)N)NC(=O)[C@H](CCCN=C(N)N)NC(=O)[C@H](CCCCN)NC(=O)[C@@H]3CSSC[C@@H](C(=O)N[C@@H](CCC(=O)O)C(=O)O)NC(=O)[C@H](Cc4c[nH]c5ccccc45)NC(=O)[C@H](CSSC[C@H](NC(=O)[C@H](CC(=O)O)NC(=O)[C@H](CO)NC(=O)[C@H]([C@@H](C)O)NC(=O)[C@H](Cc4ccc(O)cc4)NC(=O)[C@H](CC(N)=O)NC(=O)[C@H]([C@@H](C)O)NC(=O)[C@H](C)NC(=O)CNC(=O)[C@H](Cc4c[nH]c5ccccc45)NC(=O)[C@H](C(C)C)NC1=O)C(=O)N[C@@H](CC(N)=O)C(=O)N[C@@H](C)C(=O)N[C@@H](CCC(=O)O)C(=O)N3)NC(=O)[C@H](CC(N)=O)NC(=O)[C@H](C(C)C)NC(=O)[C@H](CC(N)=O)NC(=O)[C@H](CC(C)C)NC(=O)[C@H](Cc1ccccc1)NC(=O)[C@H](CO)NC(=O)CNC2=O [DTLIGSCVWGATNYTSDCNAECKRRGYKGGHCGSFLNVNCWCE]
- MIC (Trichoderma harzianum): 4.2 µM (≈ 19.8 µg/mL)
- MIC (Pachysolen tannophilus): 8.5 µM (≈ 40.1 µg/mL)
- MIC (Candida albicans): 8.5 µM (≈ 40.1 µg/mL)
- MIC (Aspergillus niger): 2.1 µM (≈ 9.9 µg/mL)
- MIC (Fusarium oxysporum): 16.9 µM (≈ 79.7 µg/mL)
- MIC (Kluyveromyces marxianus): 8.5 µM (≈ 40.1 µg/mL)

Compound: NCCCC[C@H](NC(=O)[C@H](CC(=O)O)NC(=O)[C@H](CC(=O)O)NC(=O)[C@H](CC(=O)O)NC(=O)CN)C(=O)O [GDDDK]
- MIC [29]: ≥ 200 µM

Next, values leading:

- MIC [1]: 16 µM (≈ 23.5 µg/mL)
- MIC [2]: ≥ 32 µM
- MIC [3]: ≥ 256 µM
- MIC [4]: 16 µM (≈ 23.5 µg/mL)
- MIC [5]: ≥ 128 µM
Compound: CC[C@H](C)[C@H](NC(=O)[C@H](CCCN=C(N)N)NC(=O)[C@H](CCC(N)=O)NC(=O)[C@@H](NC(=O)[C@@H](NC(=O)[C@@H](N)CCCCN)[C@@H](C)CC)C(C)C)C(=O)N[C@@H](CCCCN)C(=O)N[C@@H](CCCCN)C(=O)N[C@@H](Cc1c[nH]c2ccccc12)C(=O)N[C@@H](CC(C)C)C(=O)N[C@@H](CCCN=C(N)N)C(N)=O [KIVQRIKKWLR]

- MIC (Aeromonas salmonicida): 0.326 µM (≈ 1 µg/mL)
- MIC [6]: 5.22 µM (≈ 16 µg/mL)
- MIC [7]: 5.22 µM (≈ 16 µg/mL)
- MIC [8]: 5.22 µM (≈ 16 µg/mL)
- MIC (Vibrio anguillarum): 10.4 µM (≈ 32 µg/mL)
- MIC [9]: 0.163 µM (≈ 0.5 µg/mL)
- MIC [10]: 5.22 µM (≈ 16 µg/mL)
Compound: CC(C)C[C@H](NC(=O)[C@H](C)NC(=O)[C@H](C)NC(=O)[C@H](CCCCN)NC(=O)CNC(=O)[C@@H](NC(=O)[C@H](Cc1cnc[nH]1)NC(=O)[C@H](CCCCN)NC(=O)CNC(=O)[C@@H](NC(=O)[C@H](Cc1cnc[nH]1)NC(=O)[C@H](C)NC(=O)[C@H](C)NC(=O)[C@H](CCCCN)NC(=O)[C@H](CCCCN)NC(=O)[C@H](Cc1ccccc1)NC(=O)[C@H](Cc1ccccc1)NC(=O)[C@H](CO)NC(=O)CNC(=O)[C@H](Cc1c[nH]c2ccccc12)NC(=O)CN)C(C)C)C(C)C)C(=O)NCC(=O)N[C@@H](C)C(=O)N[C@@H](C)C(=O)N[C@@H](C)C(=O)N[C@@H](CCCN=C(N)N)C(=O)N[C@@H](CCCN=C(N)N)C(=O)N[C@@H](CCCN=C(N)N)C(=O)N[C@@H](CCCCN)C(=O)O [GWGSFFKKAAHVGKHVGKAALGAAARRRK]

- MIC (Staphylococcus aureus): 8 µM (≈ 15.5 µg/mL)
- MIC [17]: 4 µM (≈ 7.75 µg/mL)
- MIC [15]: ≥ 32 µM
- MIC [18]: 128 µM (≈ 248 µg/mL)
- MIC [19]: ≥ 64 µM
- MIC (Pseudomonas aeruginosa): > 512 µM
- MIC [20]: 256 µM (≈ 496 µg/mL)
- MIC [21]: 2 µM (≈ 3.87 µg/mL)
- MIC [22]: ≥ 64 µM
- MIC [23]: ≥ 256 µM
- MIC [24]: ≥ 128 µM
- MIC [25]: ≥ 32 µM
- MIC [26]: 4 µM (≈ 7.75 µg/mL)
- MIC [27]: 8 µM (≈ 15.5 µg/mL)
- MIC [28]: ≥ 128 µM
Compound: CC[C@H](C)[C@H](NC(=O)CNC(=O)CNC(=O)[C@H](C)NC(=O)[C@@H](NC(=O)[C@H](CCCCN)NC(=O)[C@@H]1CCCN1C(=O)[C@@H](NC(=O)[C@H](CC(C)C)NC(=O)[C@H](CO)NC(=O)[C@H](CC(C)C)NC(=O)[C@@H](N)Cc1ccccc1)[C@@H](C)CC)[C@@H](C)CC)C(=O)N[C@@H](C)C(=O)N[C@@H](C)C(=O)N[C@@H](CC(C)C)C(=O)N[C@H](C(=O)N[C@@H](CCCCN)C(=O)N[C@@H](CC(N)=O)C(=O)N[C@@H](CC(C)C)C(N)=O)C(C)C [FLSLIPKIAGGIAALVKNL]

- MIC (Escherichia coli TOP 10): ≥ 71.1 µM
Compound: CC[C@H](C)[C@H](NC(=O)[C@@H](N)CCC(=O)O)C(=O)N[C@@H](CCC(=O)O)C(=O)N[C@@H](Cc1ccc(O)cc1)C(=O)NCC(=O)N[C@@H](CC(N)=O)C(=O)N1CCC[C@H]1C(=O)NCC(=O)N[C@H](C(=O)NCC(=O)N[C@H](C(=O)N[C@@H](CC(=O)O)C(=O)N[C@@H](CCCN=C(N)N)C(N)=O)[C@@H](C)O)C(C)C [EIEYGNPGVGTDR]
